{"source": "patent US20130245081A1", "about": "“Compositions and Methods for Treating Amyotrophic Lateral Sclerosis” (priority 2009, published 2013)", "system": "patients with ALS", "key": {"[1]": {"settings": "50 mg, through the end of the study"}, "[2]": {"settings": "300 mg, No Riluzole Use, through Week 28"}, "[3]": {"settings": "300 mg, Riluzole Use, through Week 28"}, "[4]": {"settings": "300 mg, any post-baseline visit"}, "[5]": {"settings": "300 mg, double-blind treatment period"}}, "note": "“And” between values parts separate entries of the source, which are not always exact repeats. Identical values can stand only once. Like-named read-outs stand apart in the source and are kept apart here.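 Also: adverse event data gathered at every clinic visit and phone contact, after first study drug dose, in a blinded trial, counts of affected subjects.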"}
{"compound": "CCCN[C@@H]1CCc2nc(N)sc2C1", "note": "[dexpramipexole, (6R)-2-amino-4,5,6,7-tetrahydro-6-(propylamino)benzothiazole]", "values": [{"measurement": "≧1 serious treatment-related TEAE", "setting": "[1]", "result": "1 (2%) N (%)"}, {"measurement": "≧1 severe TEAE", "setting": "[1]", "result": "13 N (%) and 13 (27%) N (%)"}, {"measurement": "≧1 treatment-related TEAE", "setting": "[1]", "result": "16 (33%) N (%)"}, {"measurement": "subjects with increase from baseline in QTcF >30 msec", "setting": "300 mg", "result": 5, "unit": "subjects"}, {"measurement": "AE: Anxiety", "setting": "[2]", "result": "1 (7%) N (%)"}, {"measurement": "AE: Depression", "setting": "[2]", "result": "1 (7%) N (%)"}, {"measurement": "AE: Dysarthria", "setting": "[2]", "result": "2 (13%) N (%)"}, {"measurement": "AE: Dysphagia", "setting": "[2]", "result": "2 (13%) N (%)"}, {"measurement": "AE: Fall", "setting": "[2]", "result": "4 (27%) N (%)"}, {"measurement": "AE: Muscular weakness", "setting": "[2]", "result": "3 (20%) N (%)"}, {"measurement": "AE: Nausea", "setting": "[2]", "result": "0 N (%)"}, {"measurement": "AE: Oedema peripheral", "setting": "[2]", "result": "0 N (%)"}, {"measurement": "AE: Pharyngolaryngeal pain", "setting": "[2]", "result": "1 (7%) N (%)"}, {"measurement": "AE: Salivary hypersecretion", "setting": "[2]", "result": "2 (13%) N (%)"}, {"measurement": "AE: Sinusitis", "setting": "[2]", "result": "0 N (%)"}, {"measurement": "AE: Urinary tract infection", "setting": "[2]", "result": "1 (7%) N (%)"}, {"measurement": "AE: Anxiety", "setting": "[3]", "result": "4 (14%) N (%)"}, {"measurement": "AE: Depression", "setting": "[3]", "result": "4 (14%) N (%)"}, {"measurement": "AE: Dysarthria", "setting": "[3]", "result": "3 (10%) N (%)"}, {"measurement": "AE: Dysphagia", "setting": "[3]", "result": "2 (7%) N (%)"}, {"measurement": "AE: Fall", "setting": "[3]", "result": "7 (24%) N (%)"}, {"measurement": "AE: Headache", "setting": "[3]", "result": "2 N (%) and 2 (7%) N (%)"}, {"measurement": "AE: Muscular weakness", "setting": "[3]", "result": "4 (14%) N (%)"}, {"measurement": "AE: Oedema peripheral", "setting": "[3]", "result": "1 (3%) N (%)"}, {"measurement": "AE: Pharyngolaryngeal pain", "setting": "[3]", "result": "2 (7%) N (%)"}, {"measurement": "AE: Salivary hypersecretion", "setting": "[3]", "result": "3 (10%) N (%)"}, {"measurement": "AE: Urinary tract infection", "setting": "[3]", "result": "3 (10%) N (%)"}, {"measurement": "incidence of ECGs with QTcB increased >30 msec from baseline", "setting": "[4]", "result": 30, "unit": "%"}, {"measurement": "subjects with QTcF interval >450 msec", "setting": "[4]", "result": 3, "unit": "subjects"}, {"measurement": "AEs related to ALS as assessed by the Investigator", "setting": "[5]", "result": 80, "unit": "%"}, {"measurement": "hemoglobin value in 1 subject (potentially clinically significant)", "setting": "[5]", "result": 7.8, "unit": "g/dL"}, {"measurement": "subjects with prolonged QTcB", "setting": "[5]", "result": 3, "unit": "subjects"}, {"measurement": "subjects with serum chemistry abnormalities of potential clinical significance", "setting": "[5]", "result": 4, "unit": "subjects"}, {"measurement": "neutrophil count in 1 subject with neutropenia", "setting": "300 mg, noted at baseline of the placebo washout period", "result": 1180, "unit": "µL⁻¹"}, {"measurement": "ALS-related TEAE: Affect liability", "setting": "300 mg, through Week 28", "result": "0 N (%)"}, {"measurement": "ALS-related TEAE: Arthralgia", "setting": "300 mg, through Week 28", "result": "1 (2%) N (%)"}, {"measurement": "ALS-related TEAE: Choking", "setting": "300 mg, through Week 28", "result": "0 N (%)"}, {"measurement": "ALS-related TEAE: Constipation", "setting": "300 mg, through Week 28", "result": "4 (9%) N (%)"}, {"measurement": "ALS-related TEAE: Contusion", "setting": "300 mg, through Week 28", "result": "1 (2%) N (%)"}, {"measurement": "ALS-related TEAE: Dehydration", "setting": "300 mg, through Week 28", "result": "2 (5%) N (%)"}, {"measurement": "ALS-related TEAE: Depression", "setting": "300 mg, through Week 28", "result": "1 (2%) N (%)"}, {"measurement": "ALS-related TEAE: Disease progression", "setting": "300 mg, through Week 28", "result": "2 (5%) N (%)"}, {"measurement": "ALS-related TEAE: Dysarthria", "setting": "300 mg, through Week 28", "result": "5 (11%) N (%)"}, {"measurement": "ALS-related TEAE: Dysphagia", "setting": "300 mg, through Week 28", "result": "3 (7%) N (%)"}, {"measurement": "ALS-related TEAE: Dysphasia", "setting": "300 mg, through Week 28", "result": "1 (2%) N (%)"}, {"measurement": "ALS-related TEAE: Dyspnoea", "setting": "300 mg, through Week 28", "result": "5 (11%) N (%)"}, {"measurement": "ALS-related TEAE: Dyspnoea exertional", "setting": "300 mg, through Week 28", "result": "2 (5%) N (%)"}, {"measurement": "ALS-related TEAE: Fall", "setting": "300 mg, through Week 28", "result": "10 (23%) N (%)"}, {"measurement": "ALS-related TEAE: Fatigue", "setting": "300 mg, through Week 28", "result": "2 (5%) N (%)"}, {"measurement": "ALS-related TEAE: Gastrointestinal Disorders", "setting": "300 mg, through Week 28", "result": "11 (25%) N (%)"}, {"measurement": "ALS-related TEAE: General Disorders and Administration Site Conditions", "setting": "300 mg, through Week 28", "result": "6 (14%) N (%)"}, {"measurement": "ALS-related TEAE: Increased upper airway secretion", "setting": "300 mg, through Week 28", "result": "2 (5%) N (%)"}, {"measurement": "ALS-related TEAE: Injury, Poisoning and Procedural Complications", "setting": "300 mg, through Week 28", "result": "10 (23%) N (%)"}, {"measurement": "ALS-related TEAE: Investigations", "setting": "300 mg, through Week 28", "result": "5 (11%) N (%)"}, {"measurement": "ALS-related TEAE: Metabolism and Nutrition Disorders", "setting": "300 mg, through Week 28", "result": "4 (9%) N (%)"}, {"measurement": "ALS-related TEAE: Muscle contractions involuntary", "setting": "300 mg, through Week 28", "result": "2 (5%) N (%)"}, {"measurement": "ALS-related TEAE: Muscle spasticity", "setting": "300 mg, through Week 28", "result": "1 (2%) N (%)"}, {"measurement": "ALS-related TEAE: Muscle twitching", "setting": "300 mg, through Week 28", "result": "2 (5%) N (%)"}, {"measurement": "ALS-related TEAE: Muscular weakness", "setting": "300 mg, through Week 28", "result": "7 (16%) N (%)"}, {"measurement": "ALS-related TEAE: Musculoskeletal and Connective Tissue Disorders", "setting": "300 mg, through Week 28", "result": "14 (32%) N (%)"}, {"measurement": "ALS-related TEAE: Musculoskeletal pain", "setting": "300 mg, through Week 28", "result": "3 (7%) N (%)"}, {"measurement": "ALS-related TEAE: Myalgia", "setting": "300 mg, through Week 28", "result": "0 N (%)"}, {"measurement": "ALS-related TEAE: Neck pain", "setting": "300 mg, through Week 28", "result": "1 (2%) N (%)"}, {"measurement": "ALS-related TEAE: Nervous System Disorders", "setting": "300 mg, through Week 28", "result": "10 (23%) N (%)"}, {"measurement": "ALS-related TEAE: Oedema peripheral", "setting": "300 mg, through Week 28", "result": "1 (2%) N (%)"}, {"measurement": "ALS-related TEAE: Pain in extremity", "setting": "300 mg, through Week 28", "result": "0 N (%)"}, {"measurement": "ALS-related TEAE: Psychiatric Disorders", "setting": "300 mg, through Week 28", "result": "1 (2%) N (%)"}, {"measurement": "ALS-related TEAE: Respiratory failure", "setting": "300 mg, through Week 28", "result": "0 N (%)"}, {"measurement": "ALS-related TEAE: Respiratory, Thoracic and Mediastinal Disorders", "setting": "300 mg, through Week 28", "result": "11 (25%) N (%)"}, {"measurement": "ALS-related TEAE: Salivary hypersecretion", "setting": "300 mg, through Week 28", "result": "5 (11%) N (%)"}, {"measurement": "ALS-related TEAE: Vital capacity decreased", "setting": "300 mg, through Week 28", "result": "1 (2%) N (%)"}, {"measurement": "ALS-related TEAE: Weight decreased", "setting": "300 mg, through Week 28", "result": "2 (5%) N (%)"}, {"measurement": "Number of TEAEs", "setting": "300 mg, through Week 28", "result": 303}, {"measurement": "Number of serious TEAEs", "setting": "300 mg, through Week 28", "result": 9}, {"measurement": "Number of serious treatment-related TEAE", "setting": "300 mg, through Week 28", "result": 1}, {"measurement": "Number of severe TEAEs", "setting": "300 mg, through Week 28", "result": 12}, {"measurement": "Number of treatment-related TEAEs", "setting": "300 mg, through Week 28", "result": 46}, {"measurement": "Subjects with a TEAE with action taken of study drug discontinued", "setting": "300 mg, through Week 28", "result": "0 N (%)"}, {"measurement": "TEAE: Anxiety", "setting": "300 mg, through Week 28", "result": "5 (11%) N (%)"}, {"measurement": "TEAE: Arthralgia", "setting": "300 mg, through Week 28", "result": "3 (7%) N (%)"}, {"measurement": "TEAE: Cardiac Disorders", "setting": "300 mg, through Week 28", "result": "8 (18%) N (%)"}, {"measurement": "TEAE: Constipation", "setting": "300 mg, through Week 28", "result": "11 (25%) N (%)"}]}
